Source: patent US20190125745A1, “TREATMENT AND DIAGNOSIS OF CANCER” (Rgenix, Inc., priority 2014, published 2019)
Counter-ions that a name gives are not always drawn.

Experiments:
[1] = system: MeWo, HT-144, SK-Mel-2, SK-Mel-334.2 human melanoma cells; assay: Cell invasion assay (trans-well matrigel); type: cell-based; conditions: MeWo, 1 μM, 72 hours
Text: FIG. 2. Activation of LXRβ Signaling Suppresses Melanoma Cell Invasion and Endothelial Recruitment. (A) Heat-map depicting microarray-based expression levels of LXR and RXR isoforms in the NCI-60 melanoma cell line collection. The heat map for these genes is extracted from the larger nuclear hormone receptor family heat map (FIG. 3). Color-map key indicates the change in standard deviations for the expression value of each receptor relative to the average expression value of all microarray-profiled genes (>39,000 transcript variants) in each cell line. (B) Cell invasion by 1×10^5 MeWo, 5×10^4 HT-144, 5×10^5 SK-Mel-2, and 5×10^4 SK-Mel-334.2 human melanoma cells. Cells were treated with DMSO, GW3965, T0901317, or Bexarotene at 1 μM for 72 hours and subjected to a trans-well matrigel invasion assay. n=4-8. (C) 5×10^4 MeWo, HT-144, SK-Mel-2, and SK-Mel-334.2 human melanoma cells were tested for their ability to recruit 1×10^5 endothelial cells in a trans-well migration assay, following treatment of the melanoma cells with DMSO, GW3965, T0901317, or Bexarotene at 1 μM for 72 hours. n=4-8. […] Scale bar, 50 μm. *p<0.05, **p<0.01, ***p<0.001, ****p<0.0001.
The cell invasion assay was performed as previously described in detail (Pencheva et al., 2012) using a trans-well matrigel invasion chamber system (354480, BD Biosciences). In brief, various melanoma cells were cultured in the presence of DMSO, GW3965, T0901317, or Bexarotene at 1 μM for 56 hours, after which melanoma cells were switched to starvation media (0.2% FBS) for 16 hours in the presence of each drug. Following starvation, cells were seeded into matrigel-coated trans-well inserts, and the invasion assay was allowed to proceed for 24 hours at […]. For ApoE antibody neutralization experiments, 40 μg/mL 1 D7 anti-ApoE blocking antibody (Heart Institute, University of Ottawa, Ottawa, Canada) or […] anti-IgG control antibody (AB-108-C, R&D Systems, Minneapolis, Minn.) was added to each trans-well insert at the start of the assay.
The cells were then serum starved for 16 hours in 0.2% FBS media in the presence of each corresponding drug or DMSO. Following serum starvation, the cells were subjected to the trans-well invasion assay using a matrigel invasion chamber system (354480, BD Biosciences). Invasion chambers were pre-equilibrated prior to the assay by adding 0.5 mL of starvation media to the top and bottom wells. Meanwhile, cancer cells were trypsinized and viable cells were counted using trypan blue. Cancer cells were then resuspended at a concentration of 2×10^5 cells/1 mL starvation media, and 0.5 mL of cell suspension, containing 1×10^5 cells, was seeded into each trans-well. The invasion assay was allowed to proceed for 24 hours at 37° C. […] Following fixation, the inserts were washed in PBS, cut out, and mounted onto slides using VectaShield mounting medium containing DAPI nuclear stain (H-1000, Vector Laboratories). The basal side of each insert was imaged using an inverted fluorescence microscope (Zeiss Axiovert 40 CFL) at 5× magnification, and the number of DAPI-positive cells was quantified using ImageJ.

[2] = in vivo; cited from earlier work
[3] = system: SK-Mel-334.2 primary human melanoma line; assay: Subcutaneous SK-Mel-334.2 tumor growth in immunocompromised mice; type: in vivo; conditions: oral
Procedure: (§1) FIG. 4. Therapeutic LXR Activation Inhibits Melanoma Tumor Growth. […] Representative tumor images shown correspond to tumors extracted at the final day (d12). n=10-18 (A), 8-10 (B). (C-E) Primary tumor growth by 1×10^6 MeWo (C), […] SK-Mel-334.2 (D), and 2×10^6 SK-Mel-2 (E) human melanoma cells subcutaneously injected into immunocompromised mice. […] Tumor images shown correspond to last day of measurements. n=6-34 (C), 8 (D), 5 (E). (F) 5×10^4 B16F10 cells were injected subcutaneously into C57BL/6-WT mice. Upon tumor growth to 150 mm^3, mice were fed continuously with a control chow or a chow containing GW3965 (150 mg/kg), and tumor growth was measured daily. n=6-13. […] Tumor volume was calculated as (small diameter)^2×(large diameter)/2. […] Scale bars, 5 mm (A-D), 50 μm (J, K), 25 μm (L).

[4] = system: B16F10 mouse melanoma cells; assay: Subcutaneous B16F10 tumor growth in C57BL/6 mice; type: in vivo
Procedure: as §1
The mice were palpated daily for tumor formation and after detection of tumors measuring […] in volume, the mice were assigned to a control chow or a chow containing each respective LXR agonist: LXR-623 (20 mg/kg/day), WO-2007-002563 Ex. 19 (100 mg/kg/day), WO-2010-0138598 Ex. 9 (10 mg/kg/day or 100 mg/kg/day), or SB742881 (100 mg/kg/day). The LXR drug compounds were formulated in the mouse chow by Research Diets, Inc. Tumor dimensions were measured using digital calipers, and tumor volume was calculated as (small diameter)^2×(large diameter)/2.

O=C(O)Cc1cccc(OCCCN(Cc2cccc(C(F)(F)F)c2Cl)CC(c2ccccc2)c2ccccc2)c1 [GW3965 108, 3-[3-[N-(2-Chloro-3-trifluoromethylbenzyl)-(2,2-diphenylethyl)amino]propyloxy] phenylacetic acid hydrochloride]
suppression of cell invasion and endothelial recruitment upon knockdown of ApoE in melanoma cells [1]: blocked
ability to suppress invasion and endothelial recruitment upon knockdown of melanoma LXRβ, but not LXRα ([1]; HT-144): abrogated
crossing of the blood brain barrier [2]: can efficiently cross the blood brain barrier
inhibition of tumor growth, SK-Mel-334.2 [3]: 73%
primary tumor growth in vivo (FIG. 4) ([4]; mouse, in vivo): inhibit
reduction in the growth of established large B16F10 tumors ([4]; tumors ~150 mm^3 at start, chow 150 mg/kg): roughly 50%
